How the values were obtained:
[1] = compound: C1CC(C1)(C(=O)[O-])C(=O)[O-].N.N.[Pt+2] [Carboplatin]; settings: max 10 µM
In short: (§1)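 Cancer cell lines were plated in 1536-well plates in 7.5 μl of DMEM/F12 or RPMI with 10% FBS and kept 24 hours at 37°C and 5% CO2 before 72 hours of dosing, with final DMSO typically 0.2%. CellTiter-Glo 2.0 luminescence measured viability, scaled between blank-well and DMSO-well means. Dose responses were fitted to a two-parameter logistic curve with a non-linear mixed effects model. This fit gives the single-agent IC50.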

[2] = compound: C1CN(CCC1(C(=O)N[C@@H](CCO)C2=CC=C(C=C2)Cl)N)C3=NC=NC4=C3C=CN4 [AZD5363]; settings: max 10 µM
In short: as §1

[3] = compound: C=CCn1c(=O)c2cnc(Nc3ccc(N4CCN(C)CC4)cc3)nc2n1-c1cccc(C(C)(C)O)n1 [AZD1775]; settings: max 3 µM
In short: as §1

[4] = compound: CC(=O)Nc1cccc(-n2c(=O)n(C3CC3)c(=O)c3c(Nc4ccc(I)cc4F)n(C)c(=O)c(C)c32)c1 [Trametinib]; settings: max 1 µM
In short: as §1

[5] = compound: CC(=O)O[C@H]1C(=O)[C@@]2(C)[C@H]([C@H](OC(=O)c3ccccc3)[C@]3(O)C[C@H](OC(=O)[C@H](O)[C@@H](NC(=O)c4ccccc4)c4ccccc4)C(C)=C1C3(C)C)[C@]1(OC(C)=O)CO[C@@H]1C[C@@H]2O [Paclitaxel]; settings: max 3 µM
In short: as §1

[6] = compound: CC(=O)c1c(C)c2cnc(Nc3ccc(N4CCNCC4)cn3)nc2n(C2CCCC2)c1=O [Palbociclib]; settings: max 10 µM
In short: as §1

[7] = compound: CC(C)n1c(=O)n(C)c2cnc3cc(F)c(-c4ccc(OCCCN5CCCCC5)nc4)cc3c21 [AZD1390]; settings: max 0.3 µM
In short: as §1

[8] = compound: CC1(C)CCC(CN2CCN(c3ccc(C(=O)NS(=O)(=O)c4ccc(NCC5CCOCC5)c([N+](=O)[O-])c4)c(Oc4cnc5[nH]ccc5c4)c3)CC2)=C(c2ccc(Cl)cc2)C1 [Venetoclax]; settings: max 1 µM
In short: as §1

[9] = compound: CC1=C(C(=CC=C1)Cl)NC(=O)C2=CN=C(S2)NC3=CC(=NC(=N3)C)N4CCN(CC4)CCO [Dasatinib]; settings: max 2 µM
In short: as §1

[10] = compound: CC1=CN2[C@@H](C1)C=NC3=CC(=C(C=C3C2=O)OC)OCCCCCOC4=C(C=C5C(=C4)N=C[C@@H]6CC(=CN6C5=O)C)OC [SG3199]; settings: max 0.001 µM
In short: as §1

[11] = compound: CCN(CCO)CCCOc1ccc2c(Nc3cc(CC(=O)Nc4cccc(F)c4)[nH]n3)ncnc2c1 [AZD2811]; settings: max 1 µM
In short: as §1

[12] = compound: CCc1c2c(nc3ccc(O)cc13)-c1cc3c(c(=O)n1C2)COC(=O)[C@]3(O)CC [SN-38]; settings: max 0.3 µM
In short: as §1

[13] = compound: CN(C)CCCOc1ccc(-c2ccc3ncc4c(c3c2)n(C2CCOCC2)c(=O)n4C)cn1 [AZD0156]; settings: max 3 µM
In short: as §1

[14] = compound: CN(CC[C@H](CSC1=CC=CC=C1)NC2=C(C=C(C=C2)S(=O)(=O)NC(=O)C3=CC=C(C=C3)N4CCC(CC4)[C@H](C5=CC=CC=C5C6=CC=C(C=C6)Cl)O)S(=O)(=O)C(F)(F)F)CCO [AZD4320]; settings: max 1 µM
In short: as §1

[15] = compound: COc1cc(Nc2ncc3c(n2)-c2ccc(Cl)cc2C(c2c(F)cccc2OC)=NC3)ccc1C(=O)O [Alisertib]; settings: max 10 µM
In short: as §1

[16] = compound: COc1cc([C@@H]2c3cc4c(cc3[C@@H](O[C@@H]3O[C@@H]5CO[C@@H](C)O[C@H]5[C@H](O)[C@H]3O)[C@H]3COC(=O)[C@H]23)OCO4)cc(OC)c1O [Etoposide]; settings: max 10 µM
In short: as §1

[17] = compound: COc1cc2ncnc(Nc3ccc(F)c(Cl)c3)c2cc1OCCCN1CCOCC1 [Gefitinib]; settings: max 10 µM
In short: as §1

[18] = compound: COc1cccc(OCCCN)c1-c1cc(Nc2cnc(C#N)cn2)n[nH]1 [Prexasertib]; settings: max 1 µM
In short: as §1

[19] = compound: COc1cccc2c1C(=O)c1c(O)c3c(c(O)c1C2=O)C[C@@](O)(C(=O)CO)C[C@@H]3O[C@H]1C[C@H](N)[C@H](O)[C@H](C)O1 [Doxorubicin]; settings: max 1 µM
In short: as §1

[20] = compound: COc1nnc2ccc(N3CCC(c4ccc(OCCN5CCN(C)C(=O)[C@H]5C)cc4)CC3)nn12 [AZD5153]; settings: max 1 µM
In short: as §1

[21] = compound: CS(=O)(=O)CCNCc1ccc(-c2ccc3ncnc(Nc4ccc(OCc5cccc(F)c5)c(Cl)c4)c3c2)o1 [Lapatinib]; settings: max 10 µM
In short: as §1

[22] = compound: C[C@@H](Nc1cc(F)cc(F)c1)c1cc(C(=O)N(C)C)cc2c(=O)cc(N3CCOCC3)oc12 [AZD8186]; settings: max 10 µM
In short: as §1

[23] = compound: C[C@@H](Oc1cc(-c2cnn(C3CCNCC3)c2)cnc1N)c1c(Cl)ccc(F)c1Cl [Crizotinib]; settings: max 10 µM
In short: as §1

[24] = compound: C[C@@H](c1ccc2nccn2c1)n1nnc2ncc(-c3cnn(C)c3)nc21 [Savolitinib]; settings: max 1 µM
In short: as §1

[25] = compound: C[C@@H]1COCCN1C2=NC(=NC(=C2)C3(CC3)[S@](=N)(=O)C)C4=C5C=CNC5=NC=C4 [AZD6738]; settings: max 10 µM
In short: as §1

[26] = compound: Cc1c2c(nn1C)CSCc1cc(n(C)n1)CSc1cc(c3ccccc3c1)OCCCc1c(C(=O)O)n(C)c3c-2c(Cl)ccc13 [AZD5991]; settings: max 1 µM
In short: as §1

[27] = compound: Cc1cc2ncnn2cc1Nc1ncc2c(n1)n(C1CCOCC1)c(=O)n2C [AZD7648]; settings: max 10 µM
In short: as §1

[28] = compound: Cc1nc(-c2cn3c(n2)-c2ccc(-c4cnn(C(C)(C)C(N)=O)c4)cc2OCC3)n(C(C)C)n1 [Taselisib]; settings: max 10 µM
In short: as §1

[29] = compound: Cn1cnc2c(F)c(Nc3ccc(Br)cc3Cl)c(C(=O)NOCCO)cc21 [Selumetinib]; settings: max 10 µM
In short: as §1

[30] = compound: N#Cc1cnc(Nc2cc(NC[C@H]3CNCCO3)c(C(F)(F)F)cn2)cn1 [SRA737]; settings: max 10 µM
In short: as §1

[31] = compound: NC1(c2ccc(-c3nc4ccn5c(=O)[nH]nc5c4cc3-c3ccccc3)cc2)CCC1 [MK-2206]; settings: max 10 µM
In short: as §1

[32] = compound: Nc1ccn([C@@H]2O[C@H](CO)[C@@H](O)C2(F)F)c(=O)n1 [Gemcitabine]; settings: max 0.3 µM
In short: as §1

[33] = compound: O=C(Nc1ccc2[nH]nc(-c3ccncc3)c2c1)[C@@H]1CCN(CC(=O)N2CCN(c3ccc(-c4ncccn4)cc3)CC2)C1; settings: max 5 µM
In short: as §1

[34] = compound: O=C(c1cc(Cc2n[nH]c(=O)c3ccccc23)ccc1F)N1CCN(C(=O)C2CC2)CC1 [Olaparib]; settings: max 10 µM
In short: as §1

[35] = compound: O=c1[nH]cc(F)c(=O)[nH]1 [5-Fluorouracil]; settings: max 20 µM
In short: as §1

Row | Cell Line | IC50, cell viability 72 h [1] [nM] | IC50, cell viability 72 h [2] [nM] | IC50, cell viability 72 h [3] [nM] | IC50, cell viability 72 h [4] [nM] | IC50, cell viability 72 h [5] [nM] | IC50, cell viability 72 h [6] [nM] | IC50, cell viability 72 h [7] [nM] | IC50, cell viability 72 h [8] [nM] | IC50, cell viability 72 h [9] [nM] | IC50, cell viability 72 h [10] [nM] | IC50, cell viability 72 h [11] [nM] | IC50, cell viability 72 h [12] [nM] | IC50, cell viability 72 h [13] [nM] | IC50, cell viability 72 h [14] [nM] | IC50, cell viability 72 h [15] [nM] | IC50, cell viability 72 h [16] [nM] | IC50, cell viability 72 h [17] [nM] | IC50, cell viability 72 h [18] [nM] | IC50, cell viability 72 h [19] [nM] | IC50, cell viability 72 h [20] [nM] | IC50, cell viability 72 h [21] [nM] | IC50, cell viability 72 h [22] [nM] | IC50, cell viability 72 h [23] [nM] | IC50, cell viability 72 h [24] [nM] | IC50, cell viability 72 h [25] [nM] | IC50, cell viability 72 h [26] [nM] | IC50, cell viability 72 h [27] [nM] | IC50, cell viability 72 h [28] [nM] | IC50, cell viability 72 h [29] [nM] | IC50, cell viability 72 h [30] [nM] | IC50, cell viability 72 h [31] [nM] | IC50, cell viability 72 h [32] [nM] | IC50, cell viability 72 h [33] [nM] | IC50, cell viability 72 h [34] [nM] | IC50, cell viability 72 h [35] [nM]
1 | NCI-H2066 (Squamous Cell Lung Carcinoma) | > 10000 | > 10000 | > 3000 | > 1000 | 320 | > 10000 | > 300 | > 1000 | > 2000 | > 1 | > 1000 | > 300 | > 3000 | > 1000 | > 10000 | > 10000 | > 10000 | > 1000 | > 1000 | > 1000 | > 10000 | > 10000 | > 10000 | > 1000 | > 10000 | > 1000 | > 10000 | 3920 | > 10000 | > 10000 | > 10000 | > 300 | > 5000 | > 10000 | > 20000
2 | NCI-H1581 (Non-Small Cell Lung Carcinoma) | > 10000 | > 10000 | 1770 | 545 | 3.82 | > 10000 | > 300 | > 1000 | > 2000 | > 1 | > 1000 | 79.5 | > 3000 | > 1000 | 2060 | 5320 | > 10000 | > 1000 | > 1000 | > 1000 | > 10000 | > 10000 | > 10000 | > 1000 | > 10000 | 163 | > 10000 | > 10000 | > 10000 | > 10000 | > 10000 | 195 | 3230 | > 10000 | > 20000
3 | ONS-76 (Other Solid Carcinomas) | > 10000 | > 10000 | 1190 | 23.9 | 66.1 | > 10000 | > 300 | > 1000 | > 2000 | > 1 | > 1000 | 43.7 | > 3000 | > 1000 | > 10000 | 8960 | > 10000 | 8.7 | 252 | 940 | > 10000 | > 10000 | > 10000 | > 1000 | 1000 | > 1000 | > 10000 | > 10000 | 1910 | 1690 | > 10000 | 257 | 270 | > 10000 | > 20000
4 | PANC-10-05 (Pancreatic Carcinoma) | > 10000 | > 10000 | 1270 | 438 | 378 | > 10000 | > 300 | > 1000 | 1510 | > 1 | > 1000 | 59.5 | > 3000 | > 1000 | > 10000 | > 10000 | > 10000 | > 1000 | > 1000 | 732 | > 10000 | > 10000 | > 10000 | > 1000 | > 10000 | > 1000 | > 10000 | 7170 | > 10000 | > 10000 | > 10000 | > 300 | 3330 | > 10000 | > 20000
5 | NY (Osteosarcoma) | > 10000 | > 10000 | 538 | > 1000 | 7.26 | > 10000 | > 300 | > 1000 | > 2000 | > 1 | > 1000 | 16.1 | > 3000 | > 1000 | > 10000 | > 10000 | > 10000 | 115 | > 1000 | > 1000 | > 10000 | > 10000 | > 10000 | > 1000 | > 10000 | > 1000 | > 10000 | > 10000 | > 10000 | 3440 | > 10000 | 41 | > 5000 | > 10000 | > 20000
